Measured values reported in patent US6713623B2, “Tetraphosphonate bicyclic trisanhydrides” (Pharmasset, Ltd., priority 1996, dated 2004).
pIC50, pKi: −log10 of the molar value.

What was measured:
[1] = molecular target: IMPDH type I (Homo sapiens, UniProt P20839); conditions: Carr et al.; read-out: Ki, IMPDH type I expressed in normal cells; cited from earlier work
[2] = test system: B and T lymphocyte; conditions: cited from earlier work
[3] = test system: tumors; conditions: quick conversion into the inactive β-glucuronide after administration; cited from earlier work
[4] = test system: glucuronosyltransferases; test: glucuronidation by glucuronosyltransferases in vitro; format: in vitro ADME; conditions: parallel experiments
[5] = test system: K562 erythroleucemic cells; test: anti-proliferative activity against K562 cells; format: cell-based; conditions: Homo sapiens, read-out: IC50, growth of K562 cells
Experimental: The compounds of structure 1 are stable in plasma at room temperature for at least several days. It is assayed for both inhibitory activity against human IMPDH type II and for anti-proliferative activity against K562 erythroleucemic cells. […] The ability to induce differentiation in K562 cells is also estimated by determining the fraction of benzidine positive cells converted following incubation with β-methylene-MAD.

[6] = molecular target: human IMPDH type II (Homo sapiens, UniProt P12268); test: inhibitory activity against human IMPDH type II; format: biochemical; conditions: 100 μM NAD, 50 μM IMP, 25 nM enzyme, pH 8.0; read-out: Ki, inhibitor of IMPDH type II
[7] = test system: inosine monophosphate dehydrogenase (IMPDH); conditions: Marquez et al., J. Med. Chem. 1986; cited from earlier work

Chain of IMPDH type I (P20839 whole entry): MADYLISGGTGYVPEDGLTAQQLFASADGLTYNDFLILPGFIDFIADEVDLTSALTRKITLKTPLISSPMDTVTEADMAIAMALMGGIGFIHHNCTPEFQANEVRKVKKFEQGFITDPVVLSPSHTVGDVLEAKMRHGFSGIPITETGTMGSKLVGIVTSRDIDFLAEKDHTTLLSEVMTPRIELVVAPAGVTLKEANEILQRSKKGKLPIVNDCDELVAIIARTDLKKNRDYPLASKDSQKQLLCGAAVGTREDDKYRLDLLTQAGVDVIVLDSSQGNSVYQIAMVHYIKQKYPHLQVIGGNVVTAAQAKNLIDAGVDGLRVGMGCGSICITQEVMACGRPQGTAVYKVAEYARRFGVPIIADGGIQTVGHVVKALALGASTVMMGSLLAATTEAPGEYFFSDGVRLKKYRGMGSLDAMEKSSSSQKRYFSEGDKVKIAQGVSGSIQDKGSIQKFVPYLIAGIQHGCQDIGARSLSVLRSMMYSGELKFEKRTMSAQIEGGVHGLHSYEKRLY

| Compound | pKi [1] | B and T lymphocyte proliferation [2] | activity against tumors [3] | glucuronidation by various glucuronosyltransferases [4] | pIC50 [5] | pKi [6] | inhibition of IMPDH [7] |
| --- | --- | --- | --- | --- | --- | --- | --- |
| COc1c(C)c2c(c(O)c1C/C=C(\C)CCC(=O)O)C(=O)OC2 [mycophenolic acid, Mycophenolic acid] | 7.43 to 7.48 | blocks | inactive | effectively glucuronidated |  |  |  |
| COc1c(C)c2c(c(O)c1CC=C(C)CCCOP(=O)(O)CP(=O)(O)OCC1OC(n3cnc4c(N)ncnc43)C(O)C1O)C(=O)OC2 (stereo not drawn) [β-methylene-MAD, P^1-(adenosin-5-yl)-P^2-(mycophenol-5′-yl)methylenebis(phosphonate)] |  |  |  | completely resistant to glucuronidation | 5.22 | 6.52 |  |
| NC(=O)c1csc([C@@H]2O[C@H](COP(=O)(O)CP(=O)(O)OC[C@H]3O[C@@H](n4cnc5c(N)ncnc54)[C@H](O)[C@@H]3O)[C@@H](O)[C@H]2O)n1 [β-methylene TAD] |  |  |  |  |  |  | potent inhibitor |
